From paper PMC9820166, “Salicylate Sodium Suppresses Monocyte Chemoattractant Protein-1 Production by Directly Inhibiting Phosphodiesterase 3B in TNF-α-Stimulated Adipocytes” (International Journal of Molecular Sciences, 2022)
pIC50: −log10 of the molar value.

Legend:
[1] = tested on: MCP-1 production in TNF-α-stimulated 3T3-L1 pre-adipocytes; test: Supernatant MCP-1 (ELISA) in TNF-α-stimulated 3T3-L1 pre-adipocytes; type: cell-based, mouse
Procedure: (§1) The adipocytes were pretreated with SAS at different concentrations (0–5 mM) for 1 h and then stimulated with mouse TNF-α (40 ng/mL) at 37 °C for 24 h. The MCP-1 level in supernatant (for 3T3-L1 adipocytes) or subnatant (for primary adipocytes) was determined by ELISA according to the manufacturer’s instruction. The concentration of MCP-1 was calculated from the standard curve.

[2] = tested on: high-fat diet obese C57BL/6N mice; test: Recruitment of labeled circulating monocytes into adipose tissue of obese mice; type: in vivo, mouse; conditions: 45 mg/kg/day subcutaneous for 4 days
Procedure: page 7: Figure S7. SAS impedes the recruitment of circulating monocytes into adipose tissue in vivo (n = 4). (A) The fluorescence intensity of monocytes in adipose tissue. Male C57BL/6N mice (18 g - 20 g) were fed with high-fat diet (HFD) for 18 weeks. The obtained obese mice (36 g - 40 g) with enough epididymal adipose tissues were subcutaneously injected with SAS (45 mg/kg/day) for 4 days. Circulating blood monocytes were labeled by intravenous injection of Fluoresbrite YG Carboxylate Microspheres. Three days later, the mice were euthanatized and adipose tissues around epididymis were collected, 1.5 g of adipose tissue was digested by collagenase I. The fluorescence value of digestive juice was read at λex 441 nm and λem 486 nm. **P < 0.01 vs. HFD alone. (B) The photograph of labeled monocytes in adipose tissues. The sectioned adipose tissue (about 0.5 g) for photograph by a laser confocal microscopy using a 20 × objective. Fluorescence-labeled monocytes were shown in green. SAS, salicylate sodium. (1 picture or pasted object on this page, not shown here)

[3] = tested on: p-ERK; test: Western blot of p-ERK in TNF-α-stimulated 3T3-L1 pre-adipocytes; type: cell-based, mouse; conditions: TNF-α 40 ng/mL
Procedure: (§2) The 3T3-L1 pre-adipocytes ([…] per well in 6-well plates) were incubated with SAS for 1 h and then stimulated with mouse TNF-α (40 ng/mL) at 37 °C for indicated time. The total protein was extracted with the mammalian protein extraction kit. For western blot assay, equal amounts of protein samples (30 µg/lane) were separated by 10% sodium dodecyl sulphate-polyacrylamide gel electrophoresis (SDS-PAGE) and then transferred to PVDF membranes. Subsequently, the membranes were blocked with 5% non-fat milk powder in TBST (0.9 mM Tris, 9 mM Tris-HCl, 150 mM NaCl, 0.05% Tween-20) for 2 h at room temperature, and then incubated with various primary antibodies overnight at 4 °C. After being washed by TBST, the membranes were incubated with the corresponding secondary antibodies for 1 h at room temperature. After successive washes, the protein bands were detected using ECL luminescence reagent and photographed by the ChemiDoc XRS+ imaging system (Bio-Rad Technology, Hercules, California, America) or ChemiScope 6000 Exp (Clinx Science Instruments Co., Shanghai, China).

[4] = tested on: MCP-1 mRNA; test: MCP-1 mRNA level by RT-qPCR in TNF-α-stimulated 3T3-L1 pre-adipocytes; type: cell-based, mouse; conditions: SAS 0–5 mM pretreatment 1 h, TNF-α 40 ng/mL 4 h
Procedure: The adipocytes were pretreated with SAS at different concentrations (0–5 mM) for 1 h and then stimulated with mouse TNF-α (40 ng/mL) at 37 °C for 4 h. The total mRNA was isolated from 3T3-L1 pre-adipocytes by Trizol reagent according to the manufacturer’s instruction. Reverse transcription reactions were conducted by using M-MuLV first strand cDNA synthesis kit. The RT-qPCR analyses were performed on a BIOER Fluorescent Quantitative Detection System (Bioer Technology, Hangzhou, China). The procedure condition was as follows: 95 °C for 30 s, 95 °C for 5 s with 40 cycles, and 62 °C for 30 s. The comparative Ct method (2^−ΔΔCt) was used to analyze the relative intensities. The primer sequences for MCP-1 were as follows: 5′-[…]-3′ (forward) and 5′-[…]-3′ (reverse). The primer sequences for β-actin were as follows: 5′-[…]-3′ (forward) and 5′-[…]-3′ (reverse).

[5] = tested on: MKP-1; test: Western blot of MKP-1 expression in TNF-α-stimulated 3T3-L1 pre-adipocytes; type: cell-based, mouse; conditions: 2 h after TNF-α stimulation
Procedure: as §2

[6] = tested on: PKA; test: Intracellular PKA activity (PepTag assay) in TNF-α-stimulated 3T3-L1 pre-adipocytes; type: cell-based, mouse; conditions: SAS pretreatment 1 h, TNF-α 40 ng/mL 1 h
Procedure: The 3T3-L1 pre-adipocytes were pretreated with SAS for 1 h and then stimulated with TNF-α (40 ng/mL) for further 1 h. The cells were lysed by cold PKA extraction buffer [25 mM Tris-HCl (pH 7.4), 0.5 mM EDTA, 0.5 mM EGTA, 10 mM β-mercaptoethanol, 1 μg/mL leupetin, 1 μg/mL aprotinin and 0.5 mM PMSF] and centrifuged (5000× g) at 4 °C for 10 min. The supernatant was used immediately for PKA activity determination by using a PepTag assay for non-radioactive detection of PKA.

[7] = molecular target: T1, recombinant human PDE3B (Homo sapiens, UniProt Q13370); test: PDE3B activity inhibition (PDE-Glo PDE assay kit); type: biochemical
T1 construct: purchased SignalChem Lifesciences Corporation
Excerpt: (§3) (Fremont, CA, USA). […] All other reagents were of analytical grade.

[8] = molecular target: T2, human PDE3A (Homo sapiens, UniProt Q14432); test: PDE3A activity inhibition; type: biochemical
T2 construct: purchased Sino Biological Inc
Excerpt: as §3

[9] = tested on: MCP-1 mRNA stability; test: MCP-1 mRNA stability assay (actinomycin D); type: cell-based, mouse; conditions: SAS 5 mM, TNF-α 40 ng/mL 2 h then actinomycin D 5 ug/mL
Procedure: The mRNA stability assay was performed as described previously with modification. The 3T3-L1 pre-adipocytes were stimulated with TNF-α (40 ng/mL) for 2 h, and then treated with actinomycin D (5 ug/mL). SAS (5 mM) was added at different time points (0, 0.5, 2, 4 h). The total RNA were harvested, and the MCP-1 mRNA levels were measured by RT-qPCR analysis.

[10] = tested on: MCP-1 production in TNF-α-stimulated 3T3-L1 mature adipocytes; test: Supernatant MCP-1 (ELISA) in TNF-α-stimulated 3T3-L1 mature adipocytes; type: cell-based, mouse; conditions: SAS 0–5 mM pretreatment 1 h, TNF-α 40 ng/mL 24 h
Procedure: The 3T3-L1 pre-adipocytes were cultured and differentiated into mature adipocytes, as previously described, with slight modification. The cells were maintained in M1 medium (DMEM supplemented with 10% FBS, 1 mM sodium pyruvate, 4 mM glutamine and 1% penicillin-streptomycin solution) to reach confluence. Approximately 2 days later (termed day 0), the medium was replaced with M2 medium (M1 medium supplemented with 1.5 μg/mL insulin, 1 μM dexamethasone, 0.5 mM IBMX and 2 μM rosiglitazone). Two days later, the medium was then changed to M3 medium (M1 medium supplemented with 1.5 μg/mL insulin). Two days later, the medium was replaced with M2 for another 2 days. From day 6, the cells were maintained in M3 medium with a medium change every day. About 8–10 days later, a microscope could observe a lot of lipid droplets and the mature adipocytes were obtained.
as §1

[11] = tested on: p-p38; test: Western blot of p-p38 in TNF-α-stimulated 3T3-L1 pre-adipocytes; type: cell-based, mouse; conditions: TNF-α 40 ng/mL
Procedure: as §2

[12] = molecular target: human PDE4B (Homo sapiens, UniProt Q07343); conditions: read-out: IC50 PDE4B activity
[13] = tested on: MCP-1 production in TNF-α-stimulated mouse primary adipocytes; test: Subnatant MCP-1 (ELISA) in TNF-α-stimulated mouse primary adipocytes; type: cell-based; conditions: SAS 0–5 mM pretreatment 1 h, TNF-α 40 ng/mL 24 h
Procedure: The mouse primary adipocytes were isolated from normal lean male C57BL/6N mice, as described previously, with modification. In brief, the mice were anesthetized by an intraperitoneal injection of 2,2,2-tribromoethanol (200 mg/kg) and sacrificed via a dislocated neck. The epididymal fat pads were removed, minced and digested by collagenase I (2 mg/mL in DMEM supplemented with 20 mg/mL BSA) at 37 °C for 1 h. The digested tissue was filtered, and the filtrate was centrifuged at 200× g for 5 min. Remove and discard the underlying pellet (containing pre-adipocytes, fibroblasts, and erythrocytes) and media. Re-suspend the remaining fat layer in 10 mL DMEM and centrifuge at 200× g for 5 min. Repeat this step two additional times. The floating top layer containing primary differentiated mature adipocytes was collected and cultured in DMEM supplemented with 10% fetal bovine serum (FBS).
as §1

[14] = tested on: intracellular cAMP; test: Intracellular cAMP level (ELISA) in TNF-α-stimulated 3T3-L1 pre-adipocytes; type: cell-based, mouse; conditions: SAS pretreatment 1 h, TNF-α 40 ng/mL 1 h
Procedure: To determine the time-course change of the TNF-α-induced intracellular cAMP, the 3T3-L1 pre-adipocytes were pretreated with or without SAS (5 mM) for 1 h and then exposed to TNF-α (40 ng/mL) for different time. The cells were lysed, and the changes of intracellular cAMP within 4 h were measured by using a commercial cAMP ELISA kit. To determine the concentration-effect of SAS on intracellular cAMP, 3T3-L1 pre-adipocytes were pretreated with SAS for 1 h at the indicated concentrations and then exposed to TNF-α (40 ng/mL) for further 1 h. The cells were lysed, and the intracellular cAMP level was measured by using a commercial cAMP ELISA kit. The protein concentration of each sample was determined using BCA assay, and the cAMP level of each sample was calculated according to the below formula:cAMP level (pmol/mg protein) = cAMP concentration (pmol/mL)/protein concentration (mg/mL)

[15] = 200 μM pretreatment 1 h, TNF-α 40 ng/mL 24 h

T2 sequence (Q14432 whole entry): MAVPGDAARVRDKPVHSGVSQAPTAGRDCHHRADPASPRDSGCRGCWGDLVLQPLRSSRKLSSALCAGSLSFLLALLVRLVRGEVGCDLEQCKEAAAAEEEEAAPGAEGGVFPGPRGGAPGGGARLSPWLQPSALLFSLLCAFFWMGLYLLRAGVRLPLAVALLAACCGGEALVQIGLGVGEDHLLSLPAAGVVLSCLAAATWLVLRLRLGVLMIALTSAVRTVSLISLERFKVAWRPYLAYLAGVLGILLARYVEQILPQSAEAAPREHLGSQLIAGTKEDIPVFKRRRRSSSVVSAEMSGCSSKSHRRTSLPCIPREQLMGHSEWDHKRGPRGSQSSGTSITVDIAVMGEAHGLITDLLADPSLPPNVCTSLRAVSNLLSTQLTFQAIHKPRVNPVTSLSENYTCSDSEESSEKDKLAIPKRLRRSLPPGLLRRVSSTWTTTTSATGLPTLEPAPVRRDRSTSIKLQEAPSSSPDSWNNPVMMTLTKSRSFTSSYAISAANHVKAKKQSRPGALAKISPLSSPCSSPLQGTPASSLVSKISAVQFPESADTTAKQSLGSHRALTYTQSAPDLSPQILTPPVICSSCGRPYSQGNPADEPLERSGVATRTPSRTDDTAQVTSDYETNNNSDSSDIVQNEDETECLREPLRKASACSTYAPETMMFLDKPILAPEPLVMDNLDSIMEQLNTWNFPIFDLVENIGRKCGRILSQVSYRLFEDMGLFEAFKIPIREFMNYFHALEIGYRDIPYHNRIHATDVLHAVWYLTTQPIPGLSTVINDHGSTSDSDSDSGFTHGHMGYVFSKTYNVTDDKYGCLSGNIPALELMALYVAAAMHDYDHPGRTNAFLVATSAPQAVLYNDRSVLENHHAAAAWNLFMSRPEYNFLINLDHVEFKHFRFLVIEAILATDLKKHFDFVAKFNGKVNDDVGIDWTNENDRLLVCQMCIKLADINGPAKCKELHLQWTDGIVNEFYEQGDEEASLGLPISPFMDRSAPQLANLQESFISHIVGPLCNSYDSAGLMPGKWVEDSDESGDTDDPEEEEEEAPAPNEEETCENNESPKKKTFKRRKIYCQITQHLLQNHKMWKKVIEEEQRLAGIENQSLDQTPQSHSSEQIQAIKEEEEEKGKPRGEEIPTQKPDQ
T1 sequence (Q13370 whole entry): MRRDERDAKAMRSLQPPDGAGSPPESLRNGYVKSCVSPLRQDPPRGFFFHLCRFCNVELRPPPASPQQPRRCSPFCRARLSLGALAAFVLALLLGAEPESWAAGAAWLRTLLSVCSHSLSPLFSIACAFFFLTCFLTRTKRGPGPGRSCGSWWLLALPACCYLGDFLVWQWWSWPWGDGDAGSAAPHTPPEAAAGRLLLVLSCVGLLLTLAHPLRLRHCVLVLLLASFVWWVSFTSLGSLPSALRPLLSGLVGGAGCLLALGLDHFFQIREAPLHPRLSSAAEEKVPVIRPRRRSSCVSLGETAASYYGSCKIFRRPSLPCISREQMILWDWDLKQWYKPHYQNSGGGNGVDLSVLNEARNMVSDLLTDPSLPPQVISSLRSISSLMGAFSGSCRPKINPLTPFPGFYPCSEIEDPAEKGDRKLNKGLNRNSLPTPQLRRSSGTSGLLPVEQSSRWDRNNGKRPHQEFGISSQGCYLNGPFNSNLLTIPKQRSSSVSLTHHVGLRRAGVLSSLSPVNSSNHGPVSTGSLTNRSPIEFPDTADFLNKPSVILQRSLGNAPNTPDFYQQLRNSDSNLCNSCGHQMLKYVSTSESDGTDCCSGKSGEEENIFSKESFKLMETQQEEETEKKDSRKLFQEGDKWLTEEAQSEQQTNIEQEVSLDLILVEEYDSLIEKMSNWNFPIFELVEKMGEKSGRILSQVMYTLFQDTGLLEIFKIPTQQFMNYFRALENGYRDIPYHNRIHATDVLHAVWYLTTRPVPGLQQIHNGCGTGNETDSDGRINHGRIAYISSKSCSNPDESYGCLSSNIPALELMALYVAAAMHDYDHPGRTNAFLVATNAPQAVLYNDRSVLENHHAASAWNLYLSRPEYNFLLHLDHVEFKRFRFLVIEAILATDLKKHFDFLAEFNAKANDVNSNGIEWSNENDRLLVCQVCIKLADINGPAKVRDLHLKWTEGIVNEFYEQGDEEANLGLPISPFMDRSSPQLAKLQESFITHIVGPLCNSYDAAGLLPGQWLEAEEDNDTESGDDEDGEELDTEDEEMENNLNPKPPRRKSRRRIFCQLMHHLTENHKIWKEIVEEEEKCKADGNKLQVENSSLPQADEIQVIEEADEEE
human PDE4B, sequence (Q07343 whole entry): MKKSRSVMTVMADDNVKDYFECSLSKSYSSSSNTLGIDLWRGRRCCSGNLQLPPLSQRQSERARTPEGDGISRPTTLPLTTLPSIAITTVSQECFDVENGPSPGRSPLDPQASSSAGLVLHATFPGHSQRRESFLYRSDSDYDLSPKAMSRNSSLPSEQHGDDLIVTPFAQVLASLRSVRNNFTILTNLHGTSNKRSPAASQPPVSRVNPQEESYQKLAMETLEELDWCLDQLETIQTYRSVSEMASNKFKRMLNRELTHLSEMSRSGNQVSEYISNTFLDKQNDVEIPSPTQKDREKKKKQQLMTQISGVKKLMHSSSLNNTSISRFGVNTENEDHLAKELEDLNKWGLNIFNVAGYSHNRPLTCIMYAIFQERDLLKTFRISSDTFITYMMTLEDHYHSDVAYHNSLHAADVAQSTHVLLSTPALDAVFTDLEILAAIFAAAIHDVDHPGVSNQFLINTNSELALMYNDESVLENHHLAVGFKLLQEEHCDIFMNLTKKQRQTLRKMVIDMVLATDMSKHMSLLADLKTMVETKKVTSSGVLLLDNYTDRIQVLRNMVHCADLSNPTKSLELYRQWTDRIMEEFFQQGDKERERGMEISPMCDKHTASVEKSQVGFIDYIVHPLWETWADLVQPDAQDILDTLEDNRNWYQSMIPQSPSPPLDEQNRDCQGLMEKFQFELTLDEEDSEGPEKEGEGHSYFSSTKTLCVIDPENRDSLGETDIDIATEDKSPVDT

Compound: Nc1ncnc2c1ncn2[C@@H]1O[C@@H]2CO[P@@](O)(=S)O[C@H]2[C@H]1O [RP-cAMPS]
- Effect of cAMP antagonist on the MCP-1-lowering effect of SAS ([1]; 100 μM, with SAS, TNF-α-stimulated): abolished the effect of SAS on MCP-1

Compound: c1cc(-c2cnn3cc(-c4ccc(OCCN5CCCCC5)cc4)cnc23)ccn1 [Compound C]
- Effect of AMPK inhibitor on the MCP-1-lowering effect of SAS ([1]; co-treatment with SAS, TNF-α-stimulated): could not antagonize the effect of SAS

Compound: Cc1[nH]c(=O)c(C#N)cc1-c1ccncc1 [milrinone]
- Effect on MCP-1 production [1, 15]: suppressed the MCP-1 production

Compound: CN(C(=O)CCCOc1ccc2[nH]c(=O)ccc2c1)C1CCCCC1 [cilostamide]
- Effect on MCP-1 production [1, 15]: suppressed the MCP-1 production

Compound: NC(=O)c1ncn([C@@H]2O[C@H](CO)[C@@H](O)[C@H]2O)c1N [AICAR]
- Effect on MCP-1 production ([1]; 100 μM pretreatment 1 h, TNF-α 40 ng/mL 24 h): did not decrease the MCP-1 production

Compound: O=S(=O)(NCCNC/C=C/c1ccc(Br)cc1)c1cccc2cnccc12 [H89]
- Effect of PKA antagonist on the MCP-1-lowering effect of SAS ([1]; 100 nM, with SAS, TNF-α-stimulated): abolished the effect of SAS on MCP-1

Compound: O=C(O)c1ccccc1O [SAS, salicylate sodium]
- Effect on MCP-1 production (supernatant) ([1]; 3T3-L1 pre-adipocytes, SAS 0–5 mM pretreatment 1 h, TNF-α 40 ng/mL 24 h): significantly decreased MCP-1 production
- Effect of SAS on MCP-1 in IKKβ-deficient cells ([1]; IKKβ siRNA knockdown 3T3-L1 pre-adipocytes): did not impact the effect of SAS on MCP-1
- Effect of SAS on MCP-1 in PDE3B-deficient cells ([1]; PDE3B siRNA knockdown 3T3-L1 pre-adipocytes vs scrambled siRNA): almost disappeared
- Concentration that impedes MCP-1 expression in adipocytes ([1]; in vitro, adipocytes (Figure 2)): 1.25 to 5 mM
- Recruitment of circulating monocytes into adipose tissue [2]: markedly prevented the recruitment of circulating monocytes into the adipose tissue
- Effect on p-ERK level [3]: concentration-dependently decrease the levels of p-ERK and p-p38
- Effect on MCP-1 mRNA level [4]: concentration-dependently decreased the MCP-1 mRNA level
- Effect on MKP-1 expression [5]: maintained the expression of MKP-1 at 2 h
- Effect on intracellular PKA activity [6]: elevated the intracellular PKA activity
- pIC50 [7]: 1.86
- pIC50 [8]: 2.22
- Effect on MCP-1 mRNA stability [9]: did not affect the mRNA stability of MCP-1
- Effect on MCP-1 production (supernatant) [10]: significantly decreased MCP-1 production
- Effect on p-p38 level [11]: concentration-dependently decrease the levels of p-ERK and p-p38
- pIC50 [12]: 3.09
- Effect on MCP-1 production (subnatant) [13]: significantly decreased MCP-1 production
- Effect on TNF-α-caused reduction of intracellular cAMP [14]: could prevent this decrease in a concentration-dependent manner
